Assay results from patent US12144792B2, “Therapeutic agents for neurodegenerative diseases” (priority 2016, dated 2024).

Columns and labels:
[1] = tested on: Mucopolysaccharidosis Type IIIB (MPS IIIB) patient fibroblasts; test: Lysosomal volume via LysoTracker; format: cell-based, human; details: 1 mM, 6 days, vs untreated
[2] = tested on: patient with corticobasal syndrome; test: Case study, clinical examination; format: in vivo, human
Procedure: Gait analysis was performed before treatment commenced. After 20 days of acetyl-leucine treatment, the patient was re-examined. […] After 8 weeks of acetyl-leucine treatment, medication was stopped and the patient was re-examined 6 days later.

[3] = tested on: Mucopolysaccharidosis Type VII (MPS VII) patient fibroblasts; test: Lysosomal volume via LysoTracker; format: cell-based, human; details: 1 mM, 6 days, vs untreated
[4] = tested on: Npc1^−/− mice; test: Gait analysis (CatWalk); format: in vivo, mouse; details: 0.1 g/kg from weaning, eight weeks of age, vs untreated littermates
Procedure: Separate groups of Npc1^−/− and Npc1^+/+ mice were left untreated, as controls. Gait analysis was performed on mice at eight weeks of age using a CatWalk® 15.0 system according to manufacturer's instructions (Noldus, Nottingham, UK). Five runs were recorded per animal. CatWalk® parameters measured were: • 1. Stand Mean: average duration (s) of paws in contact with glass plate; • 2. Step Cycle: duration (s) between two consecutive contacts of the same paw; • 3. Duty Cycle: percentage of time paws in contact with plate compared with time to complete a step cycle; • 4. Step Sequence (AB): percentage of time spent walking in LF-RH-RF-LH alternating pattern (LF: left front; RH: right hind; RF: right front; LH left hind); • 5. Cadence: step per seconds in a trial; • 6. Diagonal Support: percentage of time with simultaneous contact of diagonal paws with the glass plate (RF&LH or RH&LF). Motor Function Analysis

[5] = tested on: patients with ataxia telangiectasia; test: Case studies, SARA, SCAFI, visual analog scale and reports; format: in vivo, human
Text: (§1) For example, to evaluate overall neurological status, mDRS, a four-domain scale (ambulation, manipulation, language and swallowing), may be applied. Cerebellar function may be evaluated using SARA, an eight-item clinical rating scale (gait, stance, sitting, speech, fine motor function and taxis; range 0-40, where 0 is the best neurological status and 40 the worst), and SCAFI, comprising the 8-m-Walking-Time (8MW; performed by having patients walking twice as quickly as possible from one line to another excluding turning), 9-Hole-Peg-Test (9HPT) and the number of “PATA” repetitions over 10 s. Subjective impairment and quality of life may be evaluated using the EQ-5D-5L questionnaire and VAS. To assess ocular motor function, 3-dimensional videooculography (EyeSeeCam) may be used to measure the peak velocity of saccades, gain of smooth pursuit, peak slow phase velocity of gaze-evoked nystagmus (gaze-holding function), peak slow phase velocity of optokinetic nystagmus, and gain of horizontal vestibulo-ocular reflex. To evaluate the cognitive state, WAIS-R or WISC-W, and MoCA, assessing different cognitive domains, including attention and concentration, executive functions, memory, language, visuoconstructional skills, conceptual thinking, calculations, and orientation with a maximum of 30 points and a cut-off score of 26, may be used. The skilled person will know how to perform these and other such tests.
After one month of treatment, the patient was re-evaluated. […] Examination indicated a Scale for Assessment and Rating of Ataxia (SARA) score of 15.5/40. Results from the patient's Spinocerebellar Ataxia Functional Index (SCAFI) analysis were: • Mean 8-meters Walking Test (8MW): 18.5 s • MW 9-Hole Pegboard Test Dominant (9HPTD) (right): 77.9 s • MW 9-Hole Pegboard Test Non-Dominant (9HPTND): 101.3 s • MW PATA Word Test: 13 • Visual analog scale (as evaluated by the patient): 85
After one month of treatment, the patient was re-evaluated. […] Examination indicated a Scale for Assessment and Rating of Ataxia (SARA) score of 23.5/40.
After slightly over 7 months of treatment, the patient was re-evaluated. […] Examination indicated a Scale for Assessment and Rating of Ataxia (SARA) score of 21.5/40.
After slightly over 1 month of treatment, the patient was re-evaluated. […] The patient also reported that drinking was easier and no longer needed a straw. […] Examination indicated a Scale for Assessment and Rating of Ataxia (SARA) score of 18.5/40.
After about 1 month of treatment, the patient was re-evaluated. […] On medication, they were able to walk with only holding the caregiver's hand.
The patient was evaluated after one month and six months of treatment, respectively. […] The patient, however, was suffering from anxiety, which would be expected to negatively influence the response.

[6] = tested on: patients with Tay-Sachs disease; test: Case studies, patient evaluation (SARA, SCAFI, MoCA, mRDS, EQ-5D-5L); format: in vivo, human
Text: as §1
Before treatment was commenced, examination of the patient indicated a Scale for Assessment and Rating of Ataxia (SARA) score of 15.5/40. In addition, results from the patient's Spinocerebellar Ataxia Functional Index (SCAFI) analysis were: • Mean 8-meters Walking Test (8MW): 21.6 s • MW 9-Hole Pegboard Test Dominant (9HPTD) (right): 48.3 s • MW 9-Hole Pegboard Test Non-Dominant (9HPTND): 44.9 s • MW PATA Word Test: 20 • Montreal Cognitive Assessment (MoCA): 18/30
The day following this examination, the patient was started on therapy with acetyl-leucine, at a dose of 3 g per day for the first week, followed by a dose of 5 g per day for the second week onwards.
The day of the examination, the patient was started on therapy with acetyl-leucine at a dose of 3 g per day for the first week, followed by a dose of 5 g per day for the second week onwards.
The patient was started on therapy with acetyl-leucine at a dose of 1.5 g per day for the first week, followed by a dose of 3 g per day for the second week onwards.

[7] = tested on: patients with vertigo; details: used in France to treat acute vertigo since 1957; long-term safety not determined; cited from earlier work
[8] = Ex. 15 Patient 2, after one month
[9] = Ex. 15 Patient 3, after slightly over 7 months
[10] = Ex. 15 Patient 4, after slightly over 1 month
[11] = Ex. 15 Patient 5, after almost 7 months

## CC(=O)NC(CC(C)C)C(=O)O (racemic) [acetyl-DL-leucine]
[1]
  LysoTracker fluorescence (lysosomal volume): statistically significant reduction in LysoTracker fluorescence
[2]; Ex. 10, corticobasal syndrome, 3 then 5 g per day, after 20 days
  dizziness and falls: improvement of dizziness symptoms and significant reduction in the frequency of falls
[2]; Ex. 10, medication stopped after 8 weeks
  symptoms after suspension: increase of dizziness symptoms two days after suspension of treatment
[3]
  LysoTracker fluorescence (lysosomal volume): trend in reducing LysoTracker fluorescence
[4]
  gait properties: significantly improved gait
[5]; Ex. 15 Patient 1, after one month
  caregivers' report: improvement of speech and gait
[5]; Ex. 15 Patient 1, after one month, before 12.5
  MW PATA Word Test: 13
[5]; [8]
  Mean 8-meters Walking Test (8MW): not able to perform without support
  caregivers' report: improvement of fine motor function, hand tremor, and speech
[5]; Ex. 15 Patient 2, after one month, before 13.5
  MW PATA Word Test: 14
[5]; Ex. 15 Patient 2, after one month, before 299.2 s
  MW 9-Hole Pegboard Test Non-Dominant (9HPTND): 300 s
[5]; Ex. 15 Patient 2, after one month, before 300 s
  MW 9-Hole Pegboard Test Dominant (9HPTD) (right): 300 s
[5]; [9]
  Mean 8-meters Walking Test (8MW): not able to perform
  caregivers' and patient's report: general improvement of well-being
[5]; Ex. 15 Patient 3, after slightly over 7 months, before 14
  MW PATA Word Test: 10
[5]; [10]
  Mean 8-meters Walking Test (8MW): not able to perform
  patient's and parent's report: improvement in handwriting
[5]; Ex. 15 Patient 5, ataxia telangiectasia, 5 g/day, after about 1 month
  mother's report: significant improvement of stability of the gait
[5]; Ex. 15 Patient 5, after about 1 month
  Mean 8-meters Walking Test (8MW): not able to walk without support
[5]; Ex. 15 Patient 5, after about 1 month, before 6
  MW PATA Word Test: 7.5
[5]; [11]
  MW PATA Word Test: 11
  mother's report: significantly more stable gait
[5]; Ex. 15 Patient 5, after slightly over a year
  clinical re-evaluation: improved social interaction, activity, and agility
[5]; Ex. 15 Patient 6, ataxia telangiectasia, 1.5 then 3 g/day, after one month
  symptoms: increased fine motor skills with reduced hand tremor
[5]; Ex. 15 Patient 6, after six months
  symptoms: stable general conditions, stable gait and stance, and improved handwriting
[6]; Ex. 5 Patient 1, Tay-Sachs, 3 then 5 g per day, after four months
  symptoms on re-examination: stable condition with slightly improved cognitive function but had deterioration of stance, gait and fine motor function
[6]; Ex. 5 Patient 1, Tay-Sachs, 3 then 5 g per day, after one month
  symptoms on re-examination: improved fine motor skills and reduced hand tremor
[6]; Ex. 5 Patient 2, Tay-Sachs, 3 then 5 g per day, after one month
  symptoms on re-examination: increased enunciation, improved postural stability, and enhanced cognitive function
[6]; Ex. 5 Patient 3, Tay-Sachs, 1.5 then 3 g per day, after one month
  symptoms on re-examination: improved postural stability, gait and stance, and could speak single words
[7]
  safety profile: excellent safety profile
